Data taken from PMC2841478 (Journal of medicinal chemistry, 2008).
Entries after “also recorded” stand apart in the source; their conditions may differ. Like-named read-outs stand apart in the source and are kept apart here.

Tests used:
[1] = molecular target: T1, serotonin transporter (5-HTT) (Rattus norvegicus, UniProt P31652); experiment: Competitive binding at the 5-HTT with [3H]paroxetine
[2] = molecular target: T2, norepinephrine transporter (NET) (Rattus norvegicus, UniProt Q63380); experiment: Competitive binding at the NET with [3H]nisoxetine
T2 sequence (Q63380 1-617): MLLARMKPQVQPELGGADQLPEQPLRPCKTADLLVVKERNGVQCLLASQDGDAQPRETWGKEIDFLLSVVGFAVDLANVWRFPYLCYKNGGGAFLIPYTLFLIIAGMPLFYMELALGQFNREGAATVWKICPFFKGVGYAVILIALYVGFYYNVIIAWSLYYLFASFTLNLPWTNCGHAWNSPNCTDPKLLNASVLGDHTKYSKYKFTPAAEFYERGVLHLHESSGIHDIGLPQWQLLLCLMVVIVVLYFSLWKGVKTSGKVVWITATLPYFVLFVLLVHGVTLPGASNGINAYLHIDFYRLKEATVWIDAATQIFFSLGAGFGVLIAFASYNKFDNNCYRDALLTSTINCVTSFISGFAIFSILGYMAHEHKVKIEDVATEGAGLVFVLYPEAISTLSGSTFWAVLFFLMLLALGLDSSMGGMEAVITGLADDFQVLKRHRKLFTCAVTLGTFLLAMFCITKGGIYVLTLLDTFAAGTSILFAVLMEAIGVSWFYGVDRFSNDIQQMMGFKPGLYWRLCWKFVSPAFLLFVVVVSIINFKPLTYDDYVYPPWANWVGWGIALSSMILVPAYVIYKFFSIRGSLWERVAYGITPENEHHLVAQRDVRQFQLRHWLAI

[3] = molecular target: T3, dopamine transporter (DAT) (Rattus norvegicus, UniProt P23977); experiment: Competitive binding at the DAT with [3H]WIN 35,428
T3 sequence (P23977 whole entry): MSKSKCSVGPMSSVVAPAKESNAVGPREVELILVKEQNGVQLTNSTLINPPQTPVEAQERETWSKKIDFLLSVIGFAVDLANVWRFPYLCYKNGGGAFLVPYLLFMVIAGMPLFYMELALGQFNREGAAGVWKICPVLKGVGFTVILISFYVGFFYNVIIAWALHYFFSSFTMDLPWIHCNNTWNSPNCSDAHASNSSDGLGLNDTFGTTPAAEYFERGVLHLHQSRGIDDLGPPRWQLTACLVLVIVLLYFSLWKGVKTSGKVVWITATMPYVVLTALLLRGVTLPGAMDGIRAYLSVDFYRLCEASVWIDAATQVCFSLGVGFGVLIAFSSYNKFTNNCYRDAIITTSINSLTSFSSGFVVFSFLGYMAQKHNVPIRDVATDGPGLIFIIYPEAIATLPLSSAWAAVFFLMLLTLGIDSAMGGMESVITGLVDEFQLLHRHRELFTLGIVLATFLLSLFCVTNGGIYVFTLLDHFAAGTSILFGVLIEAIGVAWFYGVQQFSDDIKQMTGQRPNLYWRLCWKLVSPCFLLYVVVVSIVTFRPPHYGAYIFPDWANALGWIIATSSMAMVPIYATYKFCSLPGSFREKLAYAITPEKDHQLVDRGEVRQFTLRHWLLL

[4] = system: cocaine self-administration; settings: rhesus monkeys, multiple second-order schedule; cited from earlier work
[5] = molecular target: T3, dopamine transporter (DAT); settings: read-out: DAT, IC50 [3H]12; comparison data; cited from earlier work
[6] = molecular target: T1, serotonin transporter (5-HTT); settings: read-out: 5-HTT, Ki [3H]paroxetine; comparison data; cited from earlier work
[7] = molecular target: T2, norepinephrine transporter (NET); settings: read-out: NET, Ki [3H]nisoxetine; comparison data; cited from earlier work
[8] = system: dopamine transporter (DAT); settings: cited from earlier work
[9] = system: drug self-administration; settings: three rhesus monkeys; cited from earlier work
[10] = system: reinforcement; settings: squirrel monkeys; cited from earlier work

T1 sequence (P31652 whole entry): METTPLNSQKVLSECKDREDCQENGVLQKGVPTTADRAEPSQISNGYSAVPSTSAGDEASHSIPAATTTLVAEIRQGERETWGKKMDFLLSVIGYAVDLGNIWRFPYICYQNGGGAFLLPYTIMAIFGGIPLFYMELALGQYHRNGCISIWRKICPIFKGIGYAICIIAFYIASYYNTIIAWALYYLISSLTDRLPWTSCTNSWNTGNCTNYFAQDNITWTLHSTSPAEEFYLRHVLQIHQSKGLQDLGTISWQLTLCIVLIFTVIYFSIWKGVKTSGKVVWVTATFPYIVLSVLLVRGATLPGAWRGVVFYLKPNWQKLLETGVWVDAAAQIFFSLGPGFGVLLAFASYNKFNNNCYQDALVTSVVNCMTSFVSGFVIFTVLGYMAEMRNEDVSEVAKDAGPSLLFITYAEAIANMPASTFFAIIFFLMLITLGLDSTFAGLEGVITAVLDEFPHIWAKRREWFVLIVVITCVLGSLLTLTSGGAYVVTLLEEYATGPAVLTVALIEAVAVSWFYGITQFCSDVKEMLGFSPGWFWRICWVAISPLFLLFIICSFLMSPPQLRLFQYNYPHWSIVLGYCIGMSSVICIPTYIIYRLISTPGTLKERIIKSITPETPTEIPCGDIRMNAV

Structure (SMILES) | Ki [1] [µM] | Ki [2] [µM] | further results
COC(=O)[C@H]1[C@@H](c2ccc(OC)cc2)C[C@@H]2CC[C@H]1N2C [7a, 3β-(4-Methoxyphenyl)tropane-2β-carboxylic Acid Methyl Ester] | 0.0043 ± 0.0005 | 1.11 ± 0.064 | –
CCOc1ccc([C@H]2C[C@@H]3CC[C@H]([C@H]2C(=O)OC)N3C)cc1 [7b, 3β-(4-Ethoxyphenyl)tropane-2β-carboxylic Acid Methyl Ester] | 0.0017 ± 0.0004 | 1.69 ± 0.05 | –
COC(=O)[C@H]1[C@@H](c2ccc(OC)c(F)c2)C[C@@H]2CC[C@H]1N2C [7c, 3β-(3-Fluoro-4-methoxyphenyl)tropane-2β-carboxylic Acid Methyl Ester] | 0.0048 ± 0.0005 | 0.27 ± 0.05 | –
COC(=O)[C@H]1[C@@H](c2ccc(OC)c(Br)c2)C[C@@H]2CC[C@H]1N2C [7d, 3β-(3-Bromo-4-methoxyphenyl)tropane-2β-carboxylic Acid Methyl Ester] | 0.0031 ± 0.0001 | 0.16 ± 0.02 | –
COC(=O)[C@H]1[C@@H](c2cc(I)c(OC)c(I)c2)C[C@@H]2CC[C@H]1N2C [7g, 3β-(3,5-Diiodo-4-methoxyphenyl)tropane-2β-carboxylic Acid Methyl Ester] | 0.0075 ± 0.0008 | > 5 | –
COc1ccc([C@H]2C[C@@H]3CC[C@H]([C@H]2C(=O)OC(C)C)N3C)cc1 [8a, 3β-(4-Methoxyphenyl)tropane-2β-carboxylic Acid Isopropyl Ester] | 0.135 ± 0.035 | 2.01 ± 0.2 | –
COc1ccc([C@H]2C[C@@H]3CC[C@H]([C@H]2C(=O)OC2CC2)N3C)cc1 [8b, 3β-(4-Methoxyphenyl)tropane-2β-carboxylic Acid Cyclopropyl Ester] | 0.029 ± 0.003 | 1.23 ± 0.14 | –
COc1ccc([C@H]2C[C@@H]3CC[C@H]([C@H]2C(=O)OC2CCC2)N3C)cc1 [8c, 3β-(4-Methoxyphenyl)tropane-2β-carboxylic Acid Cyclobutyl Ester] | 0.1 ± 0.008 | > 3 | –
COc1ccc([C@H]2C[C@@H]3CC[C@H]([C@H]2C(=O)OCCc2ccc([N+](=O)[O-])cc2)N3C)cc1 [8d, 3β-(4-Methoxyphenyl)tropane-2β-carboxylic Acid 2-(4-Nitrophenyl)ethyl Ester] | 0.0029 ± 0.0002 | 0.33 ± 0.02 | –
COc1ccc([C@H]2C[C@@H]3CC[C@H]([C@H]2C(=O)OCCc2ccc(N)cc2)N3C)cc1 [8e, 3β-(4-Methoxyphenyl)tropane-2β-carboxylic Acid 2-(4-Aminophenyl)ethyl Ester] | 0.0083 ± 0.0004 | 2.2 ± 0.3 | –
COc1ccc([C@H]2C[C@@H]3CC[C@H]([C@H]2C(=O)OCCc2ccc(NC(C)=O)cc2)N3C)cc1 [8f, 3β-(4-Methoxyphenyl)tropane-2β-carboxylic Acid 2-(4-Acetylaminophenyl)ethyl Ester] | 0.0055 ± 0.0005 | 1.46 ± 0.03 | –
COc1ccc([C@H]2C[C@@H]3CC[C@H]([C@H]2C(=O)OCCc2ccc(N)c(Br)c2)N3C)cc1 [8g, 3β-(4-Methoxyphenyl)tropane-2β-carboxylic Acid 2-(3-Bromo-4-aminophenyl)ethyl Ester] | 0.0041 ± 0.0006 | 1.85 ± 0.09 | –
COc1ccc([C@H]2C[C@@H]3CC[C@H]([C@H]2C(=O)OCCc2cc(Br)c(N)c(Br)c2)N3C)cc1 [8h, 3β-(4-Methoxyphenyl)tropane-2β-carboxylic Acid 2-(3,5-Dibromo-4-aminophenyl)ethyl Ester] | 0.002 ± 0.0004 | 2.71 ± 0.25 | –
COc1ccc([C@H]2C[C@@H]3CC[C@H]([C@H]2C(=O)OCCc2ccc(N)c(I)c2)N3C)cc1 [8i, 3β-(4-Methoxyphenyl)tropane-2β-carboxylic Acid 2-(3-Iodo-4-aminophenyl)ethyl Ester] | 0.0035 ± 0.001 | 2.04 ± 0.3 | –
COc1ccc([C@H]2C[C@@H]3CC[C@H]([C@H]2C(=O)OCCc2cc(I)c(N)c(I)c2)N3C)cc1 [8j, 3β-(4-Methoxyphenyl)tropane-2β-carboxylic Acid 2-(3,5-Diiodo-4-aminophenyl)ethyl Ester] | 0.001 ± 0.0001 | 2.6 ± 0.2 | IC50 [3]: 0.1 µM
Cc1ccc(-c2cc([C@@H]3C4CCC(C[C@@H]3c3ccc(Cl)cc3)N4C)on2)cc1 (stereo partly drawn) [compound 3, 3β-(4-chlorophenyl)-2β-[3-(4′-methylphenyl)isoxazol-5-yl]tropane] | – | – | Cocaine maintained responding after pretreatment [4]: dose-dependent reduction
COC(=O)[C@H]1[C@@H](c2ccc(Cl)c(C)c2)C[C@@H]2CC[C@H]1N2C [compound 6, 3β-(4-Chloro-3-methylphenyl)tropane-2β-carboxylic acid methyl ester] | – | – | IC50 [5]: 0.00082 ± 5e-05 µM; Ki [6]: 0.00095 ± 4e-05 µM; Ki [7]: 0.0218 ± 0.0006 µM; DAT occupancy ([8]; at the ED50 for reduction of cocaine self-administration): no detectable; also recorded: below the limits of detection; DAT occupancy ([8]; highest dose tested): greater than 70%; Maintenance of drug self-administration [9]: failed to maintain robust drug self-administration; Reinforcement effects [10]: did not exhibit any reinforcement effects
COc1ccc([C@H]2C[C@@H]3CC[C@H]([C@H]2c2cc(-c4ccc(C)cc4)no2)N3C)cc1 [compound 9, 3β-(4-Methoxyphenyl)-2β-[3-(4′-methylphenyl)isoxazol-5-yl]tropane] | 0.86 ± 0.17 | > 3 | –
